A short description of data set [1]: Alanine transaminase (ALT) and aspartate transaminase (AST) assays in serum. In kind it is in vivo, mice. The procedure:
Alanine transaminase (ALT) and aspartate transaminase (AST) assays. On day 45 of protocol 1 and day 7 and day 63 of protocol 2, three mice from each protocol were euthanized, and blood was collected through cardiac puncture. The serum was isolated by centrifuging the whole blood samples at 1500 g for 10 min and then maintained on wet ice before analysis. ALT and AST levels were measured in duplicates using assay kits (StanBio, Boerne, TX) according to the manufacturer's instructions. ALT and AST levels were determined using the rate of NADH oxidation, which was quantified by measuring absorbance at 340 nm using a CLARIOstar plate reader (BMG Labtech in Cary, NC). ALT and AST were tested for significance at multiple collection time points, tests for significance included a test for normality (Shapiro-Wilk test) and following the test for normality were then analyzed using an unpaired t-test with significance determined by an alpha of P = 0.05. […]
any significant differences between groups.
Fertility analysis. Sexually mature male C57/129 hybrid mice were randomly assigned to either the vehicle control treatment or the CDD-2807 treatment groups. Drug formulation and injections were as follows: for protocol 1 mice receiving the 15 mg/kg CDD-2807 twice daily dosing had the compound dissolved in DMSO, which was injected at 5% of the final volume in 10% Captisol and water. For protocol 2 mice receiving a single daily dose of 50 mg/kg CDD-2807, the compound was dissolved in DMSO and injected at 5% in 20% Captisol and water. All injections were administered as i.p. injections, and for the 15 mg/kg CDD-2807 and DMSO control mice, the injections were delivered in the morning and the evening. Mice in the 50 mg/kg dosing received i.p. injections once in the evening. Weights were measured daily prior to drug administration and monitored throughout the entirety of the injection period. […]

The next data set addresses CLK4 (Homo sapiens, UniProt Q9HAZ1). As to the kind of experiment: NanoBRET target engagement intracellular kinase assay. Format: cell-based. Also noted: host or cells: HEK293 (HEK293T cultured). As to the method:
(§1) NanoBRET Target Engagement intracellular kinase assay. HEK293T cells were cultured in […]
(§2) The cell line underwent authentication by short tandem repeat (STR) profiling at Cytogenetics and Cell Authentication Core (CCAC) at MD Anderson Cancer Center. NanoBRET Target Engagement intracellular kinase assay, K-10 assay (Cat. # N2641), K-9 assay (Cat. # N2631), transfection reagent FuGENE HD (Cat. # E2311), transfection carrier DNA (Cat. # E4881), NanoLuc-STK33 fusion vector (Cat. # NV2111), NanoLuc-RET fusion vector (Cat. # NV1951), NanoLuc-CLK1 fusion vector (Cat. # NV1131), NanoLuc-CLK2 fusion vector (Cat. # NV1141), and NanoLuc-CLK4 fusion vector (Cat. # NV1151) were purchased from Promega. The measurement of test compound engagement with cellular target protein was performed in a 384-well format according to manufacturer’s instructions. HEK293 cells were transiently transfected with NanoLuc (STK33, RET, CLK1, CLK2, and CLK4) fusion vectors. After 36 hours of transfection, cells were treated with a fixed concentration of tracer (recommended by Promega) followed by compounds (inhibitors) for 2 hours of incubation. To determine the test compound […]
(§3) 0.4 nM at a fixed tracer concentration. Staurosporine was measured in parallel as a positive control.
(§4) Freshly prepared NanoBRET Nano-Glo substrate plus extracellular NanoLuc inhibitor was then added to initiate the subsequent bioluminescence resonance energy transfer (BRET) measurements using a CLARIOstar Plus BMG LABTECH plate reader. Data analysis was done by measuring the ratio of acceptor emission to donor emission (BRET ratio) and normalized by subtracting no-tracer-control-background. IC50 values were obtained by nonlinear regression using a four-parameter equation in GraphPad Prism 7 (San Diego, CA).
(In general: Bioluminescence resonance energy transfer reports proximity on the nanometre scale.)

For the next data set, the target named is RET (Homo sapiens, UniProt P07949). Described as above. Format: cell-based. Also noted: host or cells: HEK293 (HEK293T cultured). The procedure:
as §1, §2, §3, §4

In another data set the target is CLK1 (Homo sapiens, UniProt P49759). The data set is described as above. In kind it is cell-based. Also noted: host or cells: HEK293 (HEK293T cultured). The procedure: as §1, §2, §3, §4
CLK1, sequence (P49759 whole entry): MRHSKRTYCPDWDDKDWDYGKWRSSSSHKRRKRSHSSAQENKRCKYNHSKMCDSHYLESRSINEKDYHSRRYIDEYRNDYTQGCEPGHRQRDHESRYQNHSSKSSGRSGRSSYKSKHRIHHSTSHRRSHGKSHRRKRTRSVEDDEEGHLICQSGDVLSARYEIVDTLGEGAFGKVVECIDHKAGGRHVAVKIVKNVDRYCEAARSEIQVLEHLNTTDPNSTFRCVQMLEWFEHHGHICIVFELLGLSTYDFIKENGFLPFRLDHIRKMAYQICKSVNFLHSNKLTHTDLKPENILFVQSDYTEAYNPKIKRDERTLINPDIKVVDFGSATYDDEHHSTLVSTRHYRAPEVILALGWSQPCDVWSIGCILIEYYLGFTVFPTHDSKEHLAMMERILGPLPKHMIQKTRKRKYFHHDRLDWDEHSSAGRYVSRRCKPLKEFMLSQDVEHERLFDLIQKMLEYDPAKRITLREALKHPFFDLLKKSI
A further data set addresses CLK2 (Homo sapiens, UniProt P49760). Described as above. Also noted: host or cells: HEK293 (HEK293T cultured). In kind it is cell-based. As to the method: as §1, §2, §3, §4
The target in the next data set is STK33 (Homo sapiens, UniProt Q9BYT3). The data set is described as above. Format: cell-based. Also noted: host or cells: HEK293 (HEK293T cultured). As to the method: as §1, §2, §3, §4
STK33, sequence (Q9BYT3 whole entry): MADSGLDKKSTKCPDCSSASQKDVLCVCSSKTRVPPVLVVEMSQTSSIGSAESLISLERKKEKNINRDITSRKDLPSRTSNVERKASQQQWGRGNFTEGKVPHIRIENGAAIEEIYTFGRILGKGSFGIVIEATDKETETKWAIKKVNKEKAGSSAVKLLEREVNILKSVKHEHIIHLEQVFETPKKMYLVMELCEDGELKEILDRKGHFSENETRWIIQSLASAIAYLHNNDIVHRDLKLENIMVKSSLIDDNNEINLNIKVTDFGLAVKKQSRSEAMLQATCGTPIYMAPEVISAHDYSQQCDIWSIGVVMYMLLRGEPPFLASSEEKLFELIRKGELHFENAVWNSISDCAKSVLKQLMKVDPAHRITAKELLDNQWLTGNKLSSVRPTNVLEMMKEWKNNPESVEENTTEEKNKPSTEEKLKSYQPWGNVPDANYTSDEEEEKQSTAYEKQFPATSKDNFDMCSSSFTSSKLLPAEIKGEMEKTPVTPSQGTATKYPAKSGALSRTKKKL
[2] abbreviates: HEK293 cells, 2 hours incubation.

The term IC50 denotes the concentration that gives 50% inhibition.

Each structure is given as a SMILES string.

CLK4, sequence (Q9HAZ1 whole entry): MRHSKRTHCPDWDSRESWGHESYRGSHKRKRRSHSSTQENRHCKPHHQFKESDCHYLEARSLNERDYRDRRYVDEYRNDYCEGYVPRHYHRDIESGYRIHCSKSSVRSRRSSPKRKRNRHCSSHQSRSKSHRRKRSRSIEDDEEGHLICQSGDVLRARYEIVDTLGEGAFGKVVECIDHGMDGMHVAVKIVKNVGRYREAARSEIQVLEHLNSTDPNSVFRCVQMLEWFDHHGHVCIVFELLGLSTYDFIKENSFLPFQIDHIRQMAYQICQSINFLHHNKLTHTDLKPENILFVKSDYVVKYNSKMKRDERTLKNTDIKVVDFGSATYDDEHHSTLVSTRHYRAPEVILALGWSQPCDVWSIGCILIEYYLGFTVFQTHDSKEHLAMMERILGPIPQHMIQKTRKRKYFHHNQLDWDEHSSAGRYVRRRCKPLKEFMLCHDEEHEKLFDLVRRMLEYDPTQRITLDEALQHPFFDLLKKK
RET, sequence (P07949 29-1114): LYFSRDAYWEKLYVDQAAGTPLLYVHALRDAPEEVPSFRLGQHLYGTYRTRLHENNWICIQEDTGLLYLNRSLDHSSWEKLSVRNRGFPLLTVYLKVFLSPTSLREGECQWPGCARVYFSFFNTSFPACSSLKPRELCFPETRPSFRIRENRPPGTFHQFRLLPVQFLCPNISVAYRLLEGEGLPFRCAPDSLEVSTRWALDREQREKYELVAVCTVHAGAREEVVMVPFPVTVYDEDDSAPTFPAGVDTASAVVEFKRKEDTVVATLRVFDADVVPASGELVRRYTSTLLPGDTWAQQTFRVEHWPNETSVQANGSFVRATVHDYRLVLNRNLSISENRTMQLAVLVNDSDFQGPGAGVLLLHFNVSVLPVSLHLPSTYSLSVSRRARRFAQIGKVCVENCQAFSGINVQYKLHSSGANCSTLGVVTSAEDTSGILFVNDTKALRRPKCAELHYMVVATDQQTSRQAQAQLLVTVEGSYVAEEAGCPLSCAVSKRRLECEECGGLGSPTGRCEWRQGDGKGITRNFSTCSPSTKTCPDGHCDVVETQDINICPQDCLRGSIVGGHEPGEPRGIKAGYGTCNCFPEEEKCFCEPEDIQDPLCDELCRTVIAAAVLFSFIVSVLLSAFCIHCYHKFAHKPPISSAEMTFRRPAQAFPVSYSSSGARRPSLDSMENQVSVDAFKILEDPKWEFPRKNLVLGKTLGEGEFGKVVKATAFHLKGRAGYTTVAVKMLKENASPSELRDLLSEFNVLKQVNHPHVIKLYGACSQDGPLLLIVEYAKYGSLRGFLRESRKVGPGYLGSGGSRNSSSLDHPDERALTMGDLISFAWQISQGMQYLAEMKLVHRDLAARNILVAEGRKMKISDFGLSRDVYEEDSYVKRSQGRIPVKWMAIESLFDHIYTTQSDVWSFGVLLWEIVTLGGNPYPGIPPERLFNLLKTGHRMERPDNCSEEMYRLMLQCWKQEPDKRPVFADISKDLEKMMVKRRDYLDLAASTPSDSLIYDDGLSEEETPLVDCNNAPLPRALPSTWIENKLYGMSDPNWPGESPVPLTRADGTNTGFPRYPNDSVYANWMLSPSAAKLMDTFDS
CLK2, sequence (P49760 whole entry): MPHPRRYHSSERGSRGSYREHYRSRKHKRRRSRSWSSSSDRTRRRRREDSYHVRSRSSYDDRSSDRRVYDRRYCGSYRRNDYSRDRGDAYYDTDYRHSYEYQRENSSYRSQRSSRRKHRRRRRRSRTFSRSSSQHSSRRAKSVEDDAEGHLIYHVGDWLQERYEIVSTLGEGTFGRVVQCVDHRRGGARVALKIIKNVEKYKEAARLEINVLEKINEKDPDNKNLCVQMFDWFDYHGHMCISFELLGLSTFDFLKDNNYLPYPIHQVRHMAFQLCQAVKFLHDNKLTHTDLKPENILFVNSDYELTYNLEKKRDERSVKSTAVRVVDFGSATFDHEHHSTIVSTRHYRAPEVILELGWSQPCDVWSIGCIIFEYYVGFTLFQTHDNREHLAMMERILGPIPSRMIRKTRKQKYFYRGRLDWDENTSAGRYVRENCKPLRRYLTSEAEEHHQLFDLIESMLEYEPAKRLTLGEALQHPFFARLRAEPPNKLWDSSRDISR

As for `O=C(c1ccc2[nH]nc(C#Cc3ccccc3-c3ccccc3)c2c1)N1CC2(CCCNC2)C1` [CDD-2807], the ALT in data set [1] (Protocol 1, 45 Days) amounted to 20.33 ± 5.30 IU/L; in data set [1] (Protocol 2, 7 Days), 23.65 ± 2.50 IU/L; in data set [1] (Protocol 2, 63 Days), 45.97 ± 11.04 IU/L. In addition, the AST was 35.80 ± 3.09 IU/L in data set [1] (Protocol 1, 45 Days); 21.66 ± 3.30 IU/L in data set [1] (Protocol 2, 7 Days); 29.76 ± 6.79 IU/L in data set [1] (Protocol 2, 63 Days). Besides, the IC50 was determined as 0.085 µM at CLK4 (setting [2]); 0.363 µM at RET (setting [2]); 0.116 µM at CLK1 (setting [2]); 0.101 µM on CLK2 (setting [2]); 0.0092 µM at STK33 (setting [2]). Also, the “Fold NanoBRET IC50 CLK4 over STK33 (in parentheses)” value at CLK4 (selectivity vs STK33) was 9 X. Besides, at RET (selectivity vs STK33), the “Fold NanoBRET IC50 RET over STK33 (in parentheses)” value was found to be 39 X. Further, the “Fold NanoBRET IC50 CLK1 over STK33 (in parentheses)” value on CLK1 (selectivity vs STK33) stood at 13 X. For the same compound, at CLK2 (selectivity vs STK33), the “Fold NanoBRET IC50 CLK2 over STK33 (in parentheses)” value is given as 11 X. The “selectivity toward STK33 compared to CLK1, CLK2, CLK4, and RET” value at STK33 was more than 9 fold.

The record behind these values is article PMC11842024, “Reversible male contraception by targeted inhibition of serine/threonine kinase 33” (Science (New York, N.Y.), 2024).
